Laboratory results as given in paper PMC12040169 (PLOS Biology, 2025).

Assay: in vitro
Conditions: human, hela cells, % viability

| SMILES | viability at 28.5 h, 10 µM [%] |
| --- | --- |
| Cc1cc(NC(=O)CSc2nc3c(c(C(F)(F)F)n2)CCc2ccccc2-3)n(-c2ccccc2)n1 [CBK266086] | 106 |
| O=c1[nH]c(=O)c2cc(S(=O)(=O)NC3(c4ccccc4)CCCC3)ccc2[nH]1 [CBK286378] | 110 |
| O=C(c1cccs1)N1CCC2(CC1)Nc1ccccc1-n1cccc12 [CBK283489] | 99.3 |
| CCN1CCN(Cc2nc3c([nH]2)c(=O)n(C)c(=O)n3C)CC1 [CBK269413] | 90.5 |
| CSc1ccc(/C=C(\C#N)c2nn(-c3ccccc3)c(N)c2C#N)cc1 [CBK262339] | 105 |
| Cc1cc(C(=O)CSc2nc(=O)cc(O)n2CC(C)C)c(C)n1C [CBK295649] | 85.4 |
| CSc1nc(O)c(C(c2cccc([N+](=O)[O-])c2)c2c(O)nc(SC)nc2O)c(O)n1 [CBK265370] | 80.5 |
| O=C(CN1CCC[C@@H]1CN1CCCC1)Nc1ncccn1 [CBK149107] | 103 |
| O=C(COc1ccc(CCO)cc1)Nc1ccccc1-c1ccccc1 [CBK269666] | 80.9 |
| CSc1nc2ccccc2c2nc(-c3ccncc3)nn12 [CBK288566] | 99.7 |
| Cc1c(C(=O)O)sc(S(=O)(=O)N2CCN(C(=O)Cc3ccccc3Cl)CC2)c1C(=O)O [CBK297137] | 107 |
| CCOC(=O)c1cnn2c(O)cc(CN(Cc3cccs3)C3CC3)nc12 [CBK305625] | 96.9 |
| Cn1c2c(c(=O)[nH]c1=O)C1(O)C(=O)c3ccccc3C1(O)N2 (stereo not drawn) [CBK261683] | 105 |
| O=c1oc2cc(Oc3ccc([N+](=O)[O-])cc3C(F)(F)F)c(Cl)cc2c2c1CCCC2 [CBK264914] | 93.7 |
| N#Cc1c(NC(=O)CN2CCc3ccccc3C2)sc2c1CCCC2 [CBK269126] | 105 |
| COc1ccc(-c2nc3ccccc3s2)cc1O [CBK026156] | 91.6 |
| CC(C)OC(=O)N1CCN(C(=O)c2cn(Cc3cccc(S(C)(=O)=O)c3)nn2)CC1 [CBK160994T] | 88.5 |
| CCOC(=O)CNc1ccc(C(F)(F)F)cc1 [CBK057732] | 94.4 |
| CCc1cc2cc3c(cc2nc1SCC(=O)Nc1cc(OC)ccc1OC)OCO3 [CBK108546] | 91.8 |
| OCCN(Cc1ccccc1)Cc1ccc(-c2ccccc2)cc1 [CBK261883] | 102 |
| COc1ccc(N(C(C)C(=O)NN=C2CCN(C)CC2)S(C)(=O)=O)cc1 (stereo not drawn) [CBK262390] | 94.2 |

| SMILES | viability at 28.5 h, 10 µM [%] |
| --- | --- |
| Cc1cc(C)n(CCCN(C)Cc2ccc(N3CCCC3=O)cc2)n1 [CBK281827] | 88.3 |
| Cc1cc(S(=O)(=O)NC2CCCCC2)ccc1OCC(=O)O [CBK267832] | 104 |
| c1ccc(CCN2CCN(c3nccnc3OCC3COc4ccccc4O3)CC2)cc1 (stereo not drawn) [CBK082794T] | 99.4 |
| Fc1ccc(OCCNC2CCc3[nH]c4ccccc4c3C2)cc1 (stereo not drawn) [CBK107791] | 83.7 |
| CCCn1c(SCC(=O)N2CCOCC2)nc2cc(Cl)ccc2c1=O [CBK306482] | 97.6 |
| OCCNc1nc(Nc2ccc(O)cc2)nc2ccccc12 [CBK266606C] | 97.3 |
| O=C(O)c1cccc(NS(=O)(=O)c2cc(C(F)(F)F)cc(C(F)(F)F)c2)c1 [CBK155725] | 102 |
| CSCCCNC(=O)N1CCCC(C(=O)O)C1 (stereo not drawn) [CBK161343] | 92.1 |
| O=C(CC1S\C(=N/N=C/C=C/c2ccccc2)N=C1O)Nc1ccc(C(=O)O)cc1 (stereo not drawn) [CBK263711] | 101 |
| COc1ccc(C(=O)C2CCCCC23NCCN3)cc1 (stereo not drawn) [CBK023140] | 104 |
| N#CCCCN1CCC(Oc2cncc(OCCN3CCOCC3)n2)C1 (stereo not drawn) [CBK084495] | 103 |
| CC1(c2ccccc2)NC(NC2CCCCC2)=NC1=O (stereo not drawn) [CBK008081] | 97.3 |
| CCC1C(=O)N=C(SCC(=O)Nc2ncccn2)NC1=O (stereo not drawn) [CBK263920] | 94.6 |
| CCCCN1C(=S)SC(C)(C)C1N(O)C(=O)C1CCCCC1 (stereo not drawn) [CBK008915] | 95.6 |
| O=C(NC(c1ccc(Cl)cc1)c1ccsc1)C1CCN(CCCN2C(=O)CC3CCCCC3C2=O)CC1 (stereo not drawn) [CBK147974] | 85.3 |
| CCCN1CCN(C(=O)c2cnc(C)cn2)C(Cc2cccc(-c3cccs3)c2)C1=O (stereo not drawn) [CBK285678] | 87.2 |
| Cc1nc2cc(Cl)ccc2n1CCO [CBK110738] | 100 |
| O=C(CCOc1ccccc1)Nc1cnc(-c2ccc(F)cc2)c(-c2ccco2)n1 [CBK036967] | 93.1 |
| CC(C(=O)Nc1cccc2[nH]ccc12)c1ccc(Cl)cc1 (stereo not drawn) [CBK159647] | 107 |
| CCOc1cccc(-c2cn3ccnc3c(NC3CC3)n2)c1 [CBK066736] | 91.6 |
| COCCn1cnnc1C(C)NC(=O)N(C)Cc1nc2ccccc2s1 (stereo not drawn) [CBK307427] | 88.2 |

| SMILES | viability at 28.5 h, 10 µM [%] |
| --- | --- |
| Cc1cc(C)cc(C(=O)N2CCCC(C(=O)N3CCN(c4nccs4)CC3)C2)c1 (stereo not drawn) [CBK298307] | 95.1 |
| CC(=O)Cc1nc2ccccc2nc1O [CBK089805] | 92.2 |
| FC(F)(F)c1[nH]c2ncccc2c1CN1CCSCC1 [CBK283257] | 87.7 |
| O=C1NC2(CC3CCC2CC3C(=O)NC2CC2)Oc2ccccc21 (stereo not drawn) [CBK284352] | 99.6 |
| COC(=O)Cc1nc(NS(=O)(=O)c2ccc(Oc3cccc(Cl)c3C#N)cc2)sc1C [CBK000744] | 98.3 |
| COc1ccc(CN(C(=O)CCN2C(=O)c3ccccc3S2(=O)=O)c2ccccc2O)cc1 [CBK265973] | 99.4 |
| c1ccc(N2CCN(c3cncc(-c4ccc5ccccc5c4)n3)CC2)nc1 [CBK066104] | 100 |
| Cc1ccc(OC(C)C(=O)Nc2ccc(S(=O)(=O)Nc3cc(C)on3)cc2)cc1 (stereo not drawn) [CBK268757] | 89.6 |
| CC(C)(C)OC(=O)NCCc1ccc(Nc2cc(-c3ccsc3)ncn2)cc1 [CBK090958] | 115 |
| COc1cccc(OCc2ccc(Cn3ccn(C(=O)CCCC(C)C)c3=O)cc2)c1 [CBK106638] | 90.5 |
| Cn1cnc(C(=O)N2CCC[C@@H]3NC(=O)c4ccccc4OCCCCC[C@@H]32)c1 [CBK292122] | 114 |
| COc1ccc2c(c1)CCc1sc(NS(=O)(=O)c3cccc(Cl)c3C)nc1-2 [CBK200033] | 84.3 |
| Cc1cc(C)c2c(N)c(C(=O)O)sc2n1 [CBK131868] | 87.8 |
| O=C(NCCCOc1ccccc1)N1CCN(S(=O)(=O)c2ccc(C(F)(F)F)cc2)CC1 [CBK296686] | 87.9 |
| COc1ccc(OCC(=O)Nc2ccc3oc(-c4ccc(OC)c(Br)c4)nc3c2)cc1 [CBK263913] | 99.4 |
| CCc1onc(C)c1NC(=O)NC1CC2(CCCC2)Oc2ccccc21 (stereo not drawn) [CBK305890] | 97.6 |
| COc1ccc(-c2cn3ccnc3c(Nc3ccc(N4CCOCC4)cc3)n2)cc1 [CBK066265] | 98.5 |
| O=C(Nc1ccc2cc[nH]c2c1)c1cccnc1 [CBK160053] | 97.9 |
| NC(=O)c1cccc(CN2CCOC3(CCN(C(=O)OCc4ccccc4)CC3)C2)c1 [CBK161100T] | 90.4 |
| COc1ccc(S(=O)(=O)N(C)CC(=O)Nc2ccc(S(N)(=O)=O)cc2)cc1 [CBK265922] | 102 |
| CS(=O)(=O)N1CC2(CCN(Cc3ncc[nH]3)CC2)c2ccccc21 [CBK126680] | 98.8 |
